Source: PMC7092364 (European journal of medicinal chemistry, 2017)
Marks after values point to notes of the source that are not given here.

Assays:
[1] = biological target: full-length recombinant NC (1–55) (Human immunodeficiency virus type 1 group M subtype B, UniProt P12493); assay: Non-denaturing ESI-MS binding and binding competition with NC; design: species or system HIV-1 LAI strain; details: for complex formation with NC (ESI-MS): 5 μM NC, ten-fold compound concentration
[2] = biological target: NC(11–55) peptide (Human immunodeficiency virus type 1 group M subtype B, UniProt P04591, I389N); assay: Nucleic acid destabilization assay; format: biochemical, HIV-1 MAL strain; details: 200 μM of compound
[3] = system: MT-2 cells; format: cell-based; details: human, 72 h

Compound | complex formation with NC (ESI-MS) [1] | affinity of 5–06 for NC relative to compound 5 ([1]; from fractional occupancies) | inhibition of the NC-induced cTAR55 destabilization [2] | TD50 [3]
Cc1ccc(NS(=O)(=O)c2ccc3oc(=O)[nH]c3c2)c(C)c1 [compound 5, N-(2,4-dimethylphenyl)-2-oxo-2,3-dihydro-1,3-benzoxazole-5-sulfonamide] | stable 1:1 complexes |  |  | 
O=c1[nH]c2cc(S(=O)(=O)Nc3ccc4[nH]ncc4c3)ccc2o1 [5–06, N-(1H-indazol-5-yl)-2-oxo-2,3-dihydro-1,3-benzoxazole-5-sulfonamide] | stable 1:1 complexes | two to three-fold higher affinity | by half | 140^# (75.0–378.0) μM
